ChEMBL document CHEMBL3091323, “Investigation of quinazolines as inhibitors of breast cancer resistance protein (ABCG2)” (Bioorg Med Chem, 2013)

biological target: T1, Broad substrate specificity ATP-binding cassette transporter ABCG2 (Homo sapiens, UniProt Q9UNQ0); assay: Inhibition of human BCRP expressed in MDCK2 cells assessed as pheophorbide A accumulation treated 30 mins before pheophorbide A addition measured up to 120 mins by flow cytometry; format: cell-based, MDCK-II; conditions: not given
T1 sequence (Q9UNQ0 whole entry): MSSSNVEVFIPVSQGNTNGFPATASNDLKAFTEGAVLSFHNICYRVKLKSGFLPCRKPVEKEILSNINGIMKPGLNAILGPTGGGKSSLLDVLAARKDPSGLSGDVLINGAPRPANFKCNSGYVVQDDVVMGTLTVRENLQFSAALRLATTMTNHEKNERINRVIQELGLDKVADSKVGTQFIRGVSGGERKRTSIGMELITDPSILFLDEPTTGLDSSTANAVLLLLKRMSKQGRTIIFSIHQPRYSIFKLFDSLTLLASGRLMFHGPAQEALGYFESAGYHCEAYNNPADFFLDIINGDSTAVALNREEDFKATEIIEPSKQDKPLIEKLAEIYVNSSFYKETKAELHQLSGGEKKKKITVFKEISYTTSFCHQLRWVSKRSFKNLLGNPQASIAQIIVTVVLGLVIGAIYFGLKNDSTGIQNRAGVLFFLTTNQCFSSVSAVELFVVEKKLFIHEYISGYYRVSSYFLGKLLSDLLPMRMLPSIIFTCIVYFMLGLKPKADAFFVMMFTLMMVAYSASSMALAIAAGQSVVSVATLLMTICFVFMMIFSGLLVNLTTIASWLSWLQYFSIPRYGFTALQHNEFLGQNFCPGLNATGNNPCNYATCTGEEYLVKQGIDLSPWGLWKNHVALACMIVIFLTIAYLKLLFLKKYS

IC50 [nM]	Compound
1480	Brc1cccc(Nc2ncnc3ccccc23)c1
4090	COc1ccc(-c2nc(Nc3ccccc3)c3ccccc3n2)cc1OC
2030	N#Cc1cccc(Nc2ncnc3ccccc23)c1
400	COc1ccc(-c2nc(Nc3cccc(Br)c3)c3ccccc3n2)cc1OC
3970	COc1cc2ncnc(Nc3ccccc3[N+](=O)[O-])c2cc1OC
3790	COc1ccc(Nc2ncnc3cc(OC)c(OC)cc23)cc1OC
930	COc1cc2ncnc(Nc3cccc(C#N)c3)c2cc1OC
3380	COc1ccc(Nc2ncnc3ccccc23)cc1OC

The next lines start with the compound.

Compound	IC50 [nM]
COc1ccc(-c2nc(Nc3ccccc3O)c3ccccc3n2)cc1OC	290
COc1ccc(Nc2nc(Nc3ccc(OC)c(OC)c3)c3cc(OC)c(OC)cc3n2)cc1OC	1520
COc1cc2nc(Nc3cccc(Br)c3)nc(Nc3cccc(Br)c3)c2cc1OC	860
FC(F)(F)c1cccc(Nc2ncnc3ccccc23)c1	1550
COc1ccc(Nc2nc(-c3ccc(OC)c(OC)c3)nc3ccccc23)cc1OC	610
COc1ccc(-c2nc(Nc3cccc(C(F)(F)F)c3)c3ccccc3n2)cc1OC	240

biological target: ATP-dependent translocase ABCB1 (Homo sapiens, UniProt P08183); assay: Inhibition of MDR1 in human doxorubicin-resistant A2780adr cells assessed as Calcein AM accumulation treated 30 mins before Calcein AM addition measured up to 90 mins by fluorescence assay; format: cell-based, A2780 ADR; conditions: not given
Sequence (P08183 whole entry): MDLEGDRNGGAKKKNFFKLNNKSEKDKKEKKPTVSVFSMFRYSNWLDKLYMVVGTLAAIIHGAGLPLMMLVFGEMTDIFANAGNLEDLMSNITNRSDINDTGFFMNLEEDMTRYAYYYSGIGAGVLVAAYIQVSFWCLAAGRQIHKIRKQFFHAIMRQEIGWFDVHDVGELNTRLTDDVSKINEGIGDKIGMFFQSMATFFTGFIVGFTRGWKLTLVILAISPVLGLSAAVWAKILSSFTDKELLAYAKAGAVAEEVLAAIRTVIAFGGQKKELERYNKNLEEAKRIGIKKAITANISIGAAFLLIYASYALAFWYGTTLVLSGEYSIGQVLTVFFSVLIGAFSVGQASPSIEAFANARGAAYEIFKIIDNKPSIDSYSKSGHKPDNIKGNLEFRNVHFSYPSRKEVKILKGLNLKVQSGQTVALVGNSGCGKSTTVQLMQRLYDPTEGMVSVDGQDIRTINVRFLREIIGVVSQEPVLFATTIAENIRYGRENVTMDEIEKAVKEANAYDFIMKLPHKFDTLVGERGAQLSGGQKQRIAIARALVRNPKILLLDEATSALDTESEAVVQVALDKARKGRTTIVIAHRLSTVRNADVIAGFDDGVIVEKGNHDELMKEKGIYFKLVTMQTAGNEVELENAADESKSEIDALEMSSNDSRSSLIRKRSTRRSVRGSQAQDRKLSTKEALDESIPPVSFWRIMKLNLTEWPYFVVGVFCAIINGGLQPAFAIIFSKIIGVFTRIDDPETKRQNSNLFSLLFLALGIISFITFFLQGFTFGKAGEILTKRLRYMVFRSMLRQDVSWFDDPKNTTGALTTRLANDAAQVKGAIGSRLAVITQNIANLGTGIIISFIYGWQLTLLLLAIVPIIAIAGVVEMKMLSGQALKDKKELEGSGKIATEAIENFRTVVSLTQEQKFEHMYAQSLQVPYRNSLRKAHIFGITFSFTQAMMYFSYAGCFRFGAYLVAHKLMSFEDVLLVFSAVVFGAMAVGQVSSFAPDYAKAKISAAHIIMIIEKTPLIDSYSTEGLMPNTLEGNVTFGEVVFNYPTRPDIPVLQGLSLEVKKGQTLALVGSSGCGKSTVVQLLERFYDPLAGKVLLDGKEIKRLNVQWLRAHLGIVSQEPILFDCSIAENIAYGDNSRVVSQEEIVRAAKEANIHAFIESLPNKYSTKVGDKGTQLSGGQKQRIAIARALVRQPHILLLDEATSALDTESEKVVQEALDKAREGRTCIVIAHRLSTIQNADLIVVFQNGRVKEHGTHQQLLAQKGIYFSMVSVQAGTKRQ

IC50 [nM]	Compound
11800	COc1ccc(-c2nc(Nc3cccc(Br)c3)c3ccccc3n2)cc1OC
3490	COc1ccc(Nc2nc(-c3ccc(OC)c(OC)c3)nc3ccccc23)cc1OC
12400	Brc1cccc(Nc2nc(-c3ccccc3)nc3ccccc23)c1

biological target: MRP1 (Homo sapiens, UniProt P33527); assay: Inhibition of MRP1 in human 2008 cells assessed as Calcein AM accumulation at 10 uM treated 30 mins before Calcein AM addition measured up to 90 mins by fluorescence assay relative to control; format: cell-based; conditions: human, 2008 cells, probe Calcein AM
Sequence (P33527 whole entry): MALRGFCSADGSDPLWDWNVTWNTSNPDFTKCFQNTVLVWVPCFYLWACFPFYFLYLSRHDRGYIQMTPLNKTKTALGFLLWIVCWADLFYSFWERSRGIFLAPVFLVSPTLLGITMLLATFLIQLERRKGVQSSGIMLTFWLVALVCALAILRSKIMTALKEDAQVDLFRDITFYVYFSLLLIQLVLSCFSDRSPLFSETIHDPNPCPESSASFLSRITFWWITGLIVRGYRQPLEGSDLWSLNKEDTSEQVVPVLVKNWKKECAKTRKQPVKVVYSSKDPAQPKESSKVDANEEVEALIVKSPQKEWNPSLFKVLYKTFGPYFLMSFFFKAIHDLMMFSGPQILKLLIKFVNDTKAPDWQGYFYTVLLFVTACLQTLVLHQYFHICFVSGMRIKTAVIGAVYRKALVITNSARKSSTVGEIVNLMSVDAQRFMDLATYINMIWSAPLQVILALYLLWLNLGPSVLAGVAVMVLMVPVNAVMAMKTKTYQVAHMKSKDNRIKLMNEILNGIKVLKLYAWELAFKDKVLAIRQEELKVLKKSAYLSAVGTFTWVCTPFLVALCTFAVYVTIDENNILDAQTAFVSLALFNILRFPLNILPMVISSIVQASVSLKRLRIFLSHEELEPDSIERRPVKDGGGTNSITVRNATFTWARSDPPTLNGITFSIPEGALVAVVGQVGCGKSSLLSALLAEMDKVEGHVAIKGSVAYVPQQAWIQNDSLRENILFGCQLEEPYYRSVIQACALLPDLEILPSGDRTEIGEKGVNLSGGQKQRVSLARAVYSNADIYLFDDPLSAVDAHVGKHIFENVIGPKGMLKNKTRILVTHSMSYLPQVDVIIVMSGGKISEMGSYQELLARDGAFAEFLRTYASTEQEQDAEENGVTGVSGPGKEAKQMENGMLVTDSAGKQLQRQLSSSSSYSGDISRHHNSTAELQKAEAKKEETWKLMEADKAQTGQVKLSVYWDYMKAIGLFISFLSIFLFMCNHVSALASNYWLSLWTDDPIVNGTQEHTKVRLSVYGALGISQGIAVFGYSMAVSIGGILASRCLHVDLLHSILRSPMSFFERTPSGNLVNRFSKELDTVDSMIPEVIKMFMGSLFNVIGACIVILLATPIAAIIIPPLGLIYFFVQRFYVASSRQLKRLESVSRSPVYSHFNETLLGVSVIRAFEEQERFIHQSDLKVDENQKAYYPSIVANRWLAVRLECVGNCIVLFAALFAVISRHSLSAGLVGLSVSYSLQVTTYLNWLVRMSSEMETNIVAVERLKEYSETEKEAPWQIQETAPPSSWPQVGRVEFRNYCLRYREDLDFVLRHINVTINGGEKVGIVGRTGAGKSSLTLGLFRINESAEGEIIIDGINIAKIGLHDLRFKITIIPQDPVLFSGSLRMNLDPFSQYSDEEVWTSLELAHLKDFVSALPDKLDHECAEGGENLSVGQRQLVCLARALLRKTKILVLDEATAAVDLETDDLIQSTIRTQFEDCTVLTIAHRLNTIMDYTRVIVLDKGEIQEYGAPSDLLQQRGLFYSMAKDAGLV

inhibition at 90 min, 10 µM [%]	Compound
> 50	COc1ccc(-c2nc(Nc3ccccc3)c3ccccc3n2)cc1OC
> 50	COc1ccc(-c2nc(Nc3cccc(Br)c3)c3ccccc3n2)cc1OC

The remaining lines, values behind:

Compound	inhibition at 90 min, 10 µM [%]
COc1ccc(-c2nc(Nc3ccccc3O)c3ccccc3n2)cc1OC	> 50
COc1ccc(Nc2nc(-c3ccc(OC)c(OC)c3)nc3ccccc23)cc1OC	> 50
COc1ccc(-c2nc(Nc3cccc(C#N)c3)c3ccccc3n2)cc1OC	> 50
COc1ccc(-c2nc(Nc3cccc(C(F)(F)F)c3)c3ccccc3n2)cc1OC	> 50

biological target: MDR1 (Homo sapiens, UniProt P08183); assay: Inhibition of MDR1 in human doxorubicin-resistant A2780adr cells assessed as Calcein AM accumulation at 10 uM treated 30 mins before Calcein AM addition measured up to 90 mins by fluorescence assay relative to control; format: cell-based, A2780 ADR; conditions: doxorubicin-resistant A2780adr cells, probe Calcein AM
Sequence (P08183 whole entry): as the sequence (P08183 whole entry) above

inhibition at 90 min, 10 µM [%]	Compound
> 50	COc1ccc(-c2nc(Nc3ccccc3)c3ccccc3n2)cc1OC
> 50	COc1ccc(-c2nc(Nc3cccc(Br)c3)c3ccccc3n2)cc1OC

The remaining lines, values behind:

Compound	inhibition at 90 min, 10 µM [%]
COc1ccc(-c2nc(Nc3ccccc3O)c3ccccc3n2)cc1OC	> 50
COc1ccc(Nc2nc(-c3ccc(OC)c(OC)c3)nc3ccccc23)cc1OC	> 50
COc1ccc(-c2nc(Nc3cccc(C#N)c3)c3ccccc3n2)cc1OC	> 50
COc1ccc(-c2nc(Nc3cccc(C(F)(F)F)c3)c3ccccc3n2)cc1OC	> 50

biological target: T1, Broad substrate specificity ATP-binding cassette transporter ABCG2; assay: Inhibition of human BCRP expressed in MDCK2 cells assessed as Hoechst 33342 accumulation treated 30 mins before Hoechst 33342 addition measured up to 120 mins by fluorescence assay; format: cell-based, MDCK-II; conditions: not given

IC50 [nM]	Compound
1080	Brc1cccc(Nc2ncnc3ccccc23)c1
1990	COc1ccc(-c2nc(Nc3ccccc3)c3ccccc3n2)cc1OC
1180	N#Cc1cccc(Nc2ncnc3ccccc23)c1
290	COc1ccc(-c2nc(Nc3cccc(Br)c3)c3ccccc3n2)cc1OC
3800	COc1cc2ncnc(Nc3ccccc3[N+](=O)[O-])c2cc1OC
7380	COc1ccc(Nc2ncnc3cc(OC)c(OC)cc23)cc1OC
1060	COc1cc2ncnc(Nc3cccc(C#N)c3)c2cc1OC
4790	COc1ccc(Nc2ncnc3ccccc23)cc1OC

More lines, now with the values behind:

Compound	IC50 [nM]
COc1ccc(-c2nc(Nc3ccccc3O)c3ccccc3n2)cc1OC	260
COc1ccc(Nc2nc(Nc3ccc(OC)c(OC)c3)c3cc(OC)c(OC)cc3n2)cc1OC	1740
COc1cc2nc(Nc3cccc(Br)c3)nc(Nc3cccc(Br)c3)c2cc1OC	670
FC(F)(F)c1cccc(Nc2ncnc3ccccc23)c1	940
COc1ccc(Nc2nc(-c3ccc(OC)c(OC)c3)nc3ccccc23)cc1OC	420
COc1ccc(-c2nc(Nc3cccc(C(F)(F)F)c3)c3ccccc3n2)cc1OC	300
